Each structure is given as a SMILES string. The source made the active and inactive calls. The rule behind the calls is not given here.

Experiment [1] deals with PC-12. In words: Neuroprotective activity against H2O2-induced cytotoxicity in rat PC12 cells assessed as cell viability at 10 umol/L preincubated for 2 hrs followed by H2O2 addition and measured after 24 hrs by MTT assay (reference value: 18.9 +/- 2.2%). Particulars: for viability at 10 µM: read-out: Activity. The experiment is classed as functional. On the technique in general: Tetrazolium assays rely on reduction of a dye to a coloured formazan, in cell work by metabolically active cells.

The next experiment concerns RAW264.7. Kind of experiment: Inhibition of LPS-induced NO production in mouse RAW264.7 cells at 10 umol/L after 24 hrs preincubated for 30 mins followed by LPS addition measured after 24 hrs by Griess assay relative to control. In kind it is functional. (In general: Griess reagent forms a coloured azo dye with nitrite.)
For experiment [2], the system named is Mus musculus. Kind of experiment: Cognition enhancing effect in scopolamine-induced cognitive impairment mouse model assessed as increase in time spent in target quadrant at 6 mg/kg, ig administered once in a day for 14 consecutive days followed by scopolamine challenge 1 hr post last dose by Morris water maze test. The experiment is classed as functional, organism-based.

In experiment [3] the test system is Mus musculus. Kind of experiment: Cognition enhancing effect in scopolamine-induced cognitive impairment mouse model assessed as increase in time spent in target quadrant at 3 mg/kg, ig administered once in a day for 14 consecutive days followed by scopolamine challenge 1 hr post last dose by Morris water maze test. In kind it is functional, organism-based.
For experiment [4], the system named is PC-12. In words: Neuroprotective activity against H2O2-induced cytotoxicity in rat PC12 cells assessed as cell viability at 1 mM preincubated for 2 hrs followed by H2O2 addition and measured after 24 hrs by MTT assay (reference value: 18.9 +/- 2.2%). The experiment is classed as functional. The note with it: read-out: Activity.

Turning to `C[C@H]1CC[C@@]2(OC1)O[C@H]1C[C@H]3[C@@H]4CC[C@@H]5C[C@@H](O)CC[C@]5(C)[C@H]4CC[C@]3(C)[C@H]1[C@@H]2C` [SARSASAPOGENIN], the viability at 10 µM in the experiment with PC-12 [1] was 3.3%.
With `C[C@H]1CC[C@@]2(OC1)O[C@H]1C[C@H]3[C@@H]4CC[C@@H]5C[C@@H](OC(=O)NN)CC[C@]5(C)[C@H]4CC[C@]3(C)[C@H]1[C@@H]2C`, in the experiment on PC-12 [1], the viability at 10 µM was 11.2%.
As to `CC(C)CNC(=O)O[C@H]1CC[C@@]2(C)[C@H](CC[C@@H]3[C@@H]2CC[C@]2(C)[C@@H]4[C@H](C[C@@H]32)O[C@]2(CC[C@H](C)CO2)[C@H]4C)C1`, testing at 10 µM with RAW264.7 gave an inhibition of 20.5%. In addition, in the experiment on PC-12 [1], the viability at 10 µM was 48.2%. The result in the experiment with Mus musculus [2] was Active.
For the molecule `C[C@H]1CC[C@@]2(OC1)O[C@H]1C[C@H]3[C@@H]4CC[C@@H]5C[C@@H](OC(=O)NCc6ccc(Cl)cc6)CC[C@]5(C)[C@H]4CC[C@]3(C)[C@H]1[C@@H]2C`, testing at 10 µM in the experiment with RAW264.7 gave an inhibition of 21.4%. For the same molecule, the viability at 10 µM with PC-12 [1] is 49.8%.
In the case of `COc1ccc(CNC(=O)O[C@H]2CC[C@@]3(C)[C@H](CC[C@@H]4[C@@H]3CC[C@]3(C)[C@@H]5[C@H](C[C@@H]43)O[C@]3(CC[C@H](C)CO3)[C@H]5C)C2)cc1`, in the experiment with PC-12 [1], the viability at 10 µM came to 21.5%.
As for `COc1cc2c(cc1OC)C(=O)C(CC1CCN(Cc3ccccc3)CC1)C2` (centres undefined), in the experiment on Mus musculus [3], the result was Active.
For the molecule `CC(=O)N[C@@H](CS)C(=O)O` [ACETYLCYSTEINE], the viability at 1000 µM in the experiment with PC-12 [4] turned out to be 35.3%.
As to `C[C@H]1CC[C@@]2(OC1)O[C@H]1C[C@H]3[C@@H]4CC[C@@H]5C[C@@H](OC(=O)NCc6cccc(Cl)c6)CC[C@]5(C)[C@H]4CC[C@]3(C)[C@H]1[C@@H]2C`, the inhibition (commonly how much of the control response was suppressed) at 10 µM in the experiment with RAW264.7 worked out at 19.3%. In addition, the viability at 10 µM with PC-12 [1] stood at 40.3%.
For `C[C@H]1CC[C@@]2(OC1)O[C@H]1C[C@H]3[C@@H]4CC[C@@H]5C[C@@H](OC(=O)NCc6ccc(O)cc6)CC[C@]5(C)[C@H]4CC[C@]3(C)[C@H]1[C@@H]2C`, the viability at 10 µM with PC-12 [1] was 18.9%.
As for `C[C@H]1CC[C@@]2(OC1)O[C@H]1C[C@H]3[C@@H]4CC[C@@H]5C[C@@H](OC(=O)NC(=N)NC#N)CC[C@]5(C)[C@H]4CC[C@]3(C)[C@H]1[C@@H]2C`, the viability at 10 µM in the experiment with PC-12 [1] was 23.5%.
The molecule `C[C@H]1CC[C@@]2(OC1)O[C@H]1C[C@H]3[C@@H]4CC[C@@H]5C[C@@H](OC(=O)NCc6ccccc6)CC[C@]5(C)[C@H]4CC[C@]3(C)[C@H]1[C@@H]2C` came in with an inhibition at 10 µM in the experiment with RAW264.7 of 8.9%. Besides, the viability at 10 µM in the experiment with PC-12 [1] is 49.4%.
As to `Cc1ccc(CNC(=O)O[C@H]2CC[C@@]3(C)[C@H](CC[C@@H]4[C@@H]3CC[C@]3(C)[C@@H]5[C@H](C[C@@H]43)O[C@]3(CC[C@H](C)CO3)[C@H]5C)C2)cc1`, the viability at 10 µM in the experiment on PC-12 [1] stood at 39.3%.
`C[C@H]1CC[C@@]2(OC1)O[C@H]1C[C@H]3[C@@H]4CC[C@@H]5C[C@@H](OC(=O)NC6CCCCC6)CC[C@]5(C)[C@H]4CC[C@]3(C)[C@H]1[C@@H]2C` showed an inhibition at 10 µM in the experiment with RAW264.7 of 4.6%. Moreover, the viability at 10 µM in the experiment on PC-12 [1] is 52.2%.
`C[C@H]1CC[C@@]2(OC1)O[C@H]1C[C@H]3[C@@H]4CC[C@@H]5C[C@@H](OC(=O)NCCN)CC[C@]5(C)[C@H]4CC[C@]3(C)[C@H]1[C@@H]2C`: the outcome in the experiment with PC-12 [1] was inactive.
Consider `C[C@H]1CC[C@@]2(OC1)O[C@H]1C[C@H]3[C@@H]4CC[C@@H]5C[C@@H](OC(=O)N6CCCCC6)CC[C@]5(C)[C@H]4CC[C@]3(C)[C@H]1[C@@H]2C`, for which testing at 10 µM in the experiment with RAW264.7 gave an inhibition of 28.7%. Also, the viability at 10 µM in the experiment with PC-12 [1] was 20.1%.
As to `C[C@H]1CC[C@@]2(OC1)O[C@H]1C[C@H]3[C@@H]4CC[C@@H]5C[C@@H](OC(=O)N6CCNCC6)CC[C@]5(C)[C@H]4CC[C@]3(C)[C@H]1[C@@H]2C`, in the experiment on PC-12 [1], the viability at 10 µM was found to be 3.4%.
Consider `C[C@H]1CC[C@@]2(OC1)O[C@H]1C[C@H]3[C@@H]4CC[C@@H]5C[C@@H](OC(=O)N6CCCC6)CC[C@]5(C)[C@H]4CC[C@]3(C)[C@H]1[C@@H]2C`, for which the viability at 10 µM with PC-12 [1] is 16.1%.

Source of the values: ChEMBL document CHEMBL4000176, “Synthesis and SAR study of novel sarsasapogenin derivatives as potent neuroprotective agents and NO production inhibitors” (2017).
